Consider seven molecules from paper PMC6025150, “Synthesis, enzyme inhibitory kinetics mechanism and computational study of N-(4-methoxyphenethyl)-N-(substituted)-4-methylbenzenesulfonamides as novel therapeutic agents for Alzheimer’s disease” (PeerJ, 2018).

In this experiment the target is T1, acetylcholinesterase (from human erythrocytes) (Homo sapiens, UniProt P22303).
T1 construct: acetylcholinesterase (from human erythrocytes, purchased from Sigma-Aldrich, Seoul, Korea); purchased Sigma-Aldrich, Seoul, Korea; host or cells: human erythrocytes (natural source)
T1 sequence (P22303 32-617 isoform P22303-2 limits assumed): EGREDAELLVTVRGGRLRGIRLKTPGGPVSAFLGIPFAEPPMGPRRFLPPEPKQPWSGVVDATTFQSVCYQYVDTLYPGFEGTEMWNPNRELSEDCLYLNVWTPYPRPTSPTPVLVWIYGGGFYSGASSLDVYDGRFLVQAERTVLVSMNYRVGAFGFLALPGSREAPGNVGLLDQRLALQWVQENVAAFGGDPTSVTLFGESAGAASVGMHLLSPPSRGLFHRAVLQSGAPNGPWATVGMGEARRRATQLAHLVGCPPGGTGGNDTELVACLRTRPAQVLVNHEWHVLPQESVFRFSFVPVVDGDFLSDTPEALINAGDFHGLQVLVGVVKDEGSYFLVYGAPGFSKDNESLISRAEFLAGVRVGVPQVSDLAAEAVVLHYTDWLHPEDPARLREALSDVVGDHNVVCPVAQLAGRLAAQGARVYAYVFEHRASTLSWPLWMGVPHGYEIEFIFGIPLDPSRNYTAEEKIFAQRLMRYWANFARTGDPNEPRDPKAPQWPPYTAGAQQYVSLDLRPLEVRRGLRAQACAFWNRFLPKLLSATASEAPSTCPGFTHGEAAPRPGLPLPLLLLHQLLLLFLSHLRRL
Briefly: biochemical. Further details: LogIC50 (best-fit value): unit not given here. The settings on record: for inhibition (Mean): mean of three; for IC50 (best-fit value): unit not given. The procedure: The inhibitory activities of synthesized compounds were determined spectrophotometrically using acetylthiocholine iodide as substrate by following the method of ([Ellman et al., 1961]). Briefly, The assay solution consisted of 180 µL of 50 mM Tris-HCl buffer, pH 7.7, containing (0.1 M sodium chloride and 0.02 M magnesium chloride) and 20 µL of enzyme (AChE, EC 3.1.1.7), acetylcholinesterase (from human erythrocytes, purchased from Sigma-Aldrich, Seoul, Korea) solution (50 U per well); increasing concentrations of test compounds (10 µL) were added to the assay solution and pre incubated for 30 min at 4 °C. After that 5,5′ Dithiobis (2 nitrobenzoic acid) (0.3 mM, 20 µL) and acetylthiocholine iodide (1.8 mM, 20 µL) were added to the reaction mixture and incubated at 37 °C for 10 min, followed by the measurement of absorbance at 412 nm. For non-enzymatic reaction, the assays were carried out with a blank containing all components except acetylcholinesterase. The assay measurements were measured at 412 nm using a micro plate reader (OPTI Max Tunable; Molecular Devices, Sunnyvale, CA, USA) having a wave-length range from 340–850 nm; for 96 well plates. The reaction rates were compared and percent inhibition was calculated due to the presence of tested inhibitors. […] Each concentration was analyzed in three independent experiments run in triplicate. The IC50 values were calculated by nonlinear regression using GraphPad Prism 5.0.
The % of Inhibition of Acetylcholinesterase was calculated as following: Inhibition%=B−S∕B×100. Here, the B and S are the absorbance’s for the blank and samples.

The mark [1] stands for this setting: each of three independent experiments, Raw Data of IC50 sheet, read-out: IC50, single experiment (converted).
[2] abbreviates: from human erythrocytes, mean ± SEM, read-out: Acetylcholinesterase IC50 ± SEM.
[3] abbreviates: mean converted to uM, Raw Data of IC50 sheet, read-out: IC50.
Setting [4] is: mean of three experiments, Raw Data of IC50 sheet, read-out: IC50 (Mean) (converted).
Setting [5] is: values as printed in abstract and discussion, read-out: acetylcholinesterase IC50.
Where [6] appears, read: log(inhibitor) vs. response fit, single run, IC50 Raw Data sheet.
Setting [7] is: log(inhibitor) vs. response fit, single run, unit inferred, IC50 Raw Data sheet, read-out: IC50 (best-fit value) (converted).
[8] abbreviates: Conc: 0.0306373 (unit not given), Raw Data of IC50 sheet.
The mark [9] stands for this setting: Conc: 0.0612745 (unit not given), Raw Data of IC50 sheet.
[10] abbreviates: Conc: 0.122549 (unit not given), Raw Data of IC50 sheet.
[11] abbreviates: Conc: 0.245098 (unit not given), Raw Data of IC50 sheet.
Setting [12] is: Conc: 0.490196 (unit not given), Raw Data of IC50 sheet.
Where [13] appears, read: Conc: 0.980392 (unit not given), Raw Data of IC50 sheet.
[14] abbreviates: Conc: 1.96078 (unit not given), Raw Data of IC50 sheet.
Setting [15] is: Conc: 3.92157 (unit not given), Raw Data of IC50 sheet.
The mark [16] stands for this setting: Concentration 0.0306373 (unit not given), IC50 Raw Data sheet.
[17] abbreviates: Concentration 0.0612745 (unit not given), IC50 Raw Data sheet.
[18] abbreviates: Concentration 0.122549 (unit not given), IC50 Raw Data sheet.
Setting [19] is: Concentration 0.245098 (unit not given), IC50 Raw Data sheet.
[20] abbreviates: Concentration 0.490196 (unit not given), IC50 Raw Data sheet.
[21] abbreviates: Concentration 0.980392 (unit not given), IC50 Raw Data sheet.
The mark [22] stands for this setting: Concentration 1.96078 (unit not given), IC50 Raw Data sheet.
The mark [23] stands for this setting: Concentration 3.92157 (unit not given), IC50 Raw Data sheet.
The mark [24] stands for this setting: each of three independent experiments, Raw Data of IC50 sheet.
Setting [25] is: mean of three experiments, Raw Data of IC50 sheet.

Converted amounts (≈) assume the structure as drawn. “And” between values parts separate entries of the source, which are not always exact repeats. Identical values can stand only once. Like-named read-outs stand apart in the source and are kept apart here.

The term IC50 denotes the midpoint of a concentration-inhibition curve. For `CCN(CCc1ccc(OC)cc1)S(=O)(=O)c1ccc(C)cc1` [Compound 5a, N-Ethyl-N-(4-methoxyphenethyl)-4-methylbenzensulfonamide], the IC50 under setting [1] is 25 µM and 21 µM and 21.6 µM; the IC50 under setting [2] came to 22.5 ± 1.23 µM; the IC50 under setting [3] came to 22.5 µM; the IC50 under setting [4] is 22.5 µM.
As to `CCCN(CCc1ccc(OC)cc1)S(=O)(=O)c1ccc(C)cc1` [Compound 5b, N-(4-Methoxyphenethyl)-4-methyl-N-(1-propyl)benzensulfonamide], the IC50 is 4.77 µM and 3.7 µM and 4.01 µM under setting [1]; 4.16 ± 0.318 µM under setting [2]; 4.16 µM under setting [3]; 4.16 µM under setting [4]; 0.119 µM under setting [5].
Regarding `CCCCN(CCc1ccc(OC)cc1)S(=O)(=O)c1ccc(C)cc1` [Compound 5d, N-(1-Butyl)-N-(4-methoxyphenethyl)-4-methylbenzensulfonamide], the 50% inhibitory concentration (IC50) runs as follows: under setting [1], 0.0997 µM and 0.134 µM; under setting [2], 0.12 ± 0.0102 µM; under setting [7], 0.125 µM; under setting [3], 0.12 µM; under setting [4], 0.12 µM; under setting [5], 0.124 ± 0.021 µM. For the same molecule, the “LogIC50 (best-fit value)” value under setting [6] is given as -1.347.
Regarding `CCCCCN(CCc1ccc(OC)cc1)S(=O)(=O)c1ccc(C)cc1` [Compound 5e, N-(4-Methoxyphenethyl)-4-methyl-N-(1-pentyl)benzensulfonamide], the IC50 under setting [1] was 0.374 µM and 0.414 µM and 0.406 µM; the IC50 under setting [2] came to 0.398 ± 0.0123 µM; the IC50 under setting [7] was 0.384 µM; the IC50 under setting [3] was determined as 0.398 µM; the IC50 under setting [4] is 0.398 µM. Further, the “LogIC50 (best-fit value)” value under setting [6] is on record as -0.8411.
With `CCCCCCCN(CCc1ccc(OC)cc1)S(=O)(=O)c1ccc(C)cc1` [Compound 5f, N-(1-Heptyl)-N-(4-methoxyphenethyl)-4-methylbenzensulfonamide], the IC50 is 0.474 µM and 0.427 µM under setting [1]; 0.444 ± 0.015 µM under setting [2]; 0.432 µM under setting [7]; 0.444 µM under setting [3]; 0.444 µM under setting [4]. The “LogIC50 (best-fit value)” value under setting [6] is -0.759.
In general, % inhibition refers to the change of the read-out against control, counted positive when it falls. Consider `COc1ccc(CCN(CCCc2ccccc2)S(=O)(=O)c2ccc(C)cc2)cc1` [Compound 5g, N-(4-Methoxyphenethyl)-4-methyl-N-(3-phenyl-1-propyl) benzensulfonamide], for which the “inhibition, single experiment” value under setting [8] was 16.111 and 16.8631; the “inhibition, single experiment” value under setting [9] is 30.2326 and 29.5369; the “inhibition, single experiment” value under setting [10] was 32.9175 and 33.3333; the “inhibition, single experiment” value under setting [11] was 43.5555 and 42.1199; the “inhibition, single experiment” value under setting [12] was 49.3413 and 49.9987; the “inhibition, single experiment” value under setting [13] is 59.3325 and 58.7749. The “inhibition, single experiment” value is, setting by setting: under setting [14], 66.9964 and 65.1126; under setting [15], 74.8965 and 74.0186. Besides, the “inhibition (Mean)” value under setting [8] came out at 16.1834; the “inhibition (Mean)” value under setting [9] stood at 29.6527; the “inhibition (Mean)” value under setting [10] came out at 32.8451; the “inhibition (Mean)” value under setting [11] was found to be 42.7571; the “inhibition (Mean)” value under setting [12] is listed as 49.6905; the “inhibition (Mean)” value under setting [13] turned out to be 59.2851. Moreover, the “inhibition (Mean)” value reads like this: under setting [14], 66.1998; under setting [15], 74.3992. In addition, the “% inhibition” value by setting is: under setting [16], 15.576%; under setting [17], 32.2845%; under setting [18], 29.1886%; under setting [19], 42.5959%; under setting [20], 49.7315%; under setting [21], 59.7479%. Also, the “% inhibition” value was determined as 66.4906% under setting [22] and 74.2824% under setting [23]. Under setting [24], the “IC50, single experiment” value is 0.3267 µg/mL and 0.3464 µg/mL and 0.341 µg/mL. The IC50 amounted to 0.798 ± 0.0138 µM under setting [2] and 0.798 µM under setting [3]. Also, under setting [6], the “LogIC50 (best-fit value)” value was -0.4313. The “IC50 (best-fit value)” value under setting [6] was determined as 0.3704. For the same molecule, under setting [25], the “IC50 (Mean)” value came to 0.338 µg/mL (≈ 0.798 µM).
Turning to `COc1ccc(CCN(Cc2ccccc2C)S(=O)(=O)c2ccc(C)cc2)cc1` [Compound 5h, N-(4-Methoxyphenethyl)-4-methyl-N-(2-methylbenzyl) benzensulfonamide], the “inhibition, single experiment” value is, setting by setting: under setting [8], 41.4444 and 41.0099; under setting [9], 45.3557 and 45.1011; under setting [10], 50.9025 and 51.1299; under setting [11], 63.8777 and 63.001; under setting [12], 71.1111 and 70.9965; under setting [13], 78.3125 and 78.8745. For the same molecule, the “inhibition, single experiment” value under setting [14] is 83.9784 and 86.5532; the “inhibition, single experiment” value under setting [15] is 96.8547 and 96.1111. For the same molecule, the “inhibition (Mean)” value is recorded as 40.984 under setting [8]; 44.9216 under setting [9]; 51.0341 under setting [10]; 63.2456 under setting [11]; 70.8325 under setting [12]; 78.5659 under setting [13]. The “inhibition (Mean)” value reads like this: under setting [14], 85.3051; under setting [15], 96.3251. For the same molecule, the “% inhibition” value came out at 40.4976% under setting [16]; 44.3081% under setting [17]; 51.0699% under setting [18]; 62.858% under setting [19]; 70.3899% under setting [20]; 78.5107% under setting [21]. The “% inhibition” value was 85.3837% under setting [22] and 96.0094% under setting [23]. The “IC50, single experiment” value under setting [24] is 0.4151 µg/mL and 0.4171 µg/mL. Besides, the IC50 is 1.011 ± 0.0053 µM under setting [2] and 1.01 µM under setting [3]. Moreover, the “LogIC50 (best-fit value)” value under setting [6] is -0.3874. For the same molecule, under setting [6], the “IC50 (best-fit value)” value was 0.4098. In addition, under setting [25], the “IC50 (Mean)” value worked out at 0.414 µg/mL (≈ 1.01 µM).
